Here are results for one compound from US20030007948A1, “Adhesive treatment for skin yeast infections” (CLOSURE MEDICAL CORPORATION, priority 2001, published 2003).

The data set is described as follows: Observation of haloprogin / 2-octyl cyanoacrylate monomer composition after preparation. The data set is classed as physicochemical. To be noted: 30 mg haloprogin in 2 mL 2-octyl cyanoacrylate monomer. The procedure: A 2-octyl cyanoacrylate monomer composition is prepared by adding 30 mg of haloprogin, an anti-fungal agent, to 2 mL of 2-octyl cyanoacrylate monomer. The mixture is sealed in a glass vial and stirred. The characteristics of the composition are observed at about one minute after preparation and later at least twenty-four hours after preparation.

Regarding `Clc1cc(Cl)c(OCC#CI)cc1Cl` [haloprogin], the “premature polymerization of the monomer” value (sealed glass vial, about one minute and at least twenty-four hours after preparation) is given as “does not cause premature polymerization”. For the same compound, the “solubility in the monomer” value (observed at about one minute and at least twenty-four hours after preparation) is listed as “soluble”.
